Calls of active or inactive are those of the source.
Legend:
Assay type in all cases: functional
Hexokinase HKDC1 [1] = molecular target: T1, Hexokinase HKDC1 (Homo sapiens, UniProt Q2TB90); test: HKDC1 hexokinase inhibitors, dose response, biochemical, W721R variant (AID 504729)
T1 sequence (Q2TB90 whole entry): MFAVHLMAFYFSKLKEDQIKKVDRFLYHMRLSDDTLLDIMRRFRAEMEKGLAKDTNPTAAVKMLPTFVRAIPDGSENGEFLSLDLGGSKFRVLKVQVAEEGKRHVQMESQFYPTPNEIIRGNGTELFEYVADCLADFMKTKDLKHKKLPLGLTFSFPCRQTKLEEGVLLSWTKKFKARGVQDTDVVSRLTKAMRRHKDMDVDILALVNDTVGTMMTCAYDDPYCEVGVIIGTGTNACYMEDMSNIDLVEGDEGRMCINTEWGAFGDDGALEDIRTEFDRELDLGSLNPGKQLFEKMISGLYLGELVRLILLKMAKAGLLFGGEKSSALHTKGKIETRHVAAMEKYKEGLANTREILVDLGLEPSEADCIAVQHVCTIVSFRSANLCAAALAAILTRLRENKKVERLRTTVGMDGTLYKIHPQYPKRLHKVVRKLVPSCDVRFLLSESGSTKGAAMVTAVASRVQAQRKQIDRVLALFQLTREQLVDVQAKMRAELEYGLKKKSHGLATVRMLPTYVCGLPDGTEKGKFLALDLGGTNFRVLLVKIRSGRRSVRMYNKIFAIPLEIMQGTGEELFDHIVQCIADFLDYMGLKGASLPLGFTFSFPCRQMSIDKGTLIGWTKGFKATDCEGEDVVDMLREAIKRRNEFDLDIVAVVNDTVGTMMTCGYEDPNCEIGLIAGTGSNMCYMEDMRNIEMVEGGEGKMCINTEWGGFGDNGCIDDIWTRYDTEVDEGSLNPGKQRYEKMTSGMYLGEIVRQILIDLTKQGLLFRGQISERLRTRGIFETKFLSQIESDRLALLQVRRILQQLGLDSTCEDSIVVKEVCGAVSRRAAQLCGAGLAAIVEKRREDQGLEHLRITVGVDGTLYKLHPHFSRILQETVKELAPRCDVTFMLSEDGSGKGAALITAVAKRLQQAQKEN

Protein RecA = molecular target: T2, Protein RecA (Mycobacterium tuberculosis, UniProt P9WHJ3); test: Fluorescence Cell-Free Homogeneous Dose Retest to Identify Inhibitors of RecA-Intein Splicing Activity. [Related pubchem assays (depositor defined):AID2097, AID2223, AID489010, AID492950]
T2 sequence (P9WHJ3 whole entry): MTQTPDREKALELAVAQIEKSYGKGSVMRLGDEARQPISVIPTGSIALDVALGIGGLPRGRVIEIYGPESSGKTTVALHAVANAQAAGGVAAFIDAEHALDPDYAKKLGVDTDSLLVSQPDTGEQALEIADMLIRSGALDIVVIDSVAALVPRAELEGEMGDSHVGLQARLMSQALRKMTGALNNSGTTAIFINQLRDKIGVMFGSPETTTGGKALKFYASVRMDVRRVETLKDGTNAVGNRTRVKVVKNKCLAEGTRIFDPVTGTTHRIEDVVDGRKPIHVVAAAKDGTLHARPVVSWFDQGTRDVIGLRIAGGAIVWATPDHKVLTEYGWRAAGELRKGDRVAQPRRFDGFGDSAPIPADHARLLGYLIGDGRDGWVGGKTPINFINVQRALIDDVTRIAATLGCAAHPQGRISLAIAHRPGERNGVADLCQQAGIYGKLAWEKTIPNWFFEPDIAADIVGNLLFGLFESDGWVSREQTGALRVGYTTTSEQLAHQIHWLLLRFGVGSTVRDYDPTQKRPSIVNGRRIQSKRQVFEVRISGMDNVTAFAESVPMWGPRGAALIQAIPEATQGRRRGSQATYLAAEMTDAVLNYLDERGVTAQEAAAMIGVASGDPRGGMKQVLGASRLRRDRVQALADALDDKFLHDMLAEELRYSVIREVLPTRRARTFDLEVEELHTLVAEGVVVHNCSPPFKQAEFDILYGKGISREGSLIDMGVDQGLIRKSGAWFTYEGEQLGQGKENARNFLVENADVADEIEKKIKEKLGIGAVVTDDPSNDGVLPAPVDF

Hexokinase HKDC1 [2] = molecular target: T1, Hexokinase HKDC1; test: HKDC1 hexokinase inhibitors, SAR follow-up, biochemical, set 2 (AID 588355)
[3] = molecular target: Ribosomal protein S6 kinase alpha-3 (Homo sapiens, UniProt P51812);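 also: measured within a kinome-wide profiling panel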
[4] = molecular target: Glycogen synthase kinase-3 alpha (Homo sapiens, UniProt P49840);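 also: GSK3A result taken from a broad kinome-wide kinase panel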
[5] = molecular target: Serine/threonine-protein kinase PLK1 (Homo sapiens, UniProt P53350);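 also: PLK1 measured as one member of a kinome-wide profiling panel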
[6] = molecular target: Dual specificity tyrosine-phosphorylation-regulated kinase 1A (Homo sapiens, UniProt Q13627);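 also: measured against DYRK1A as one member of a broad kinome profiling panel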
[7] = molecular target: ALK tyrosine kinase receptor (Homo sapiens, UniProt Q9UM73);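 also: ALK tested as one member of a kinase panel screen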
[8] = molecular target: Rho-associated protein kinase 2 (Homo sapiens, UniProt O75116)
SRSF protein kinase 1 = SRSF protein kinase 1 (Homo sapiens, UniProt Q96SB4);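 also: measured as one member of a kinome-wide kinase profiling panel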
[9] = molecular target: MAP kinase-activated protein kinase 5 (Homo sapiens, UniProt Q8IW41);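 also: measured as one member of a kinome panel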
[10] = molecular target: Tyrosine-protein kinase BTK (Homo sapiens, UniProt Q06187)
[11] = molecular target: Serine/threonine-protein kinase N2 (Homo sapiens, UniProt Q16513)
[12] = molecular target: Tyrosine-protein kinase Blk (Homo sapiens, UniProt P51451);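 also: obtained as one member of a kinome-wide kinase assay panel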
[13] = molecular target: Mitogen-activated protein kinase kinase kinase kinase 2 (Homo sapiens, UniProt Q12851);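 also: measured as one member of a kinome-wide kinase panel, with MAP4K2 as the panel entry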
[14] = molecular target: Dual specificity tyrosine-phosphorylation-regulated kinase 4 (Homo sapiens, UniProt Q9NR20)
[15] = molecular target: Maternal embryonic leucine zipper kinase (Homo sapiens, UniProt Q14680)
[16] = molecular target: Tyrosine-protein kinase Fer (Homo sapiens, UniProt P16591);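 also: FER tested as one member of a kinome panel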
[17] = molecular target: Cyclin-dependent kinase 8 (Homo sapiens, UniProt P49336); test: Navigating the Kinome. Panel member name: CDK8
[18] = molecular target: STE20-like serine/threonine-protein kinase (Homo sapiens, UniProt Q9H2G2)
[19] = molecular target: Tyrosine-protein kinase receptor UFO (Homo sapiens, UniProt P30530)
[20] = molecular target: Tyrosine-protein kinase FRK (Homo sapiens, UniProt P42685);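 also: FRK tested as one member of a kinome panel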

MAP kinase-activated protein kinase 5, sequence (Q8IW41 whole entry): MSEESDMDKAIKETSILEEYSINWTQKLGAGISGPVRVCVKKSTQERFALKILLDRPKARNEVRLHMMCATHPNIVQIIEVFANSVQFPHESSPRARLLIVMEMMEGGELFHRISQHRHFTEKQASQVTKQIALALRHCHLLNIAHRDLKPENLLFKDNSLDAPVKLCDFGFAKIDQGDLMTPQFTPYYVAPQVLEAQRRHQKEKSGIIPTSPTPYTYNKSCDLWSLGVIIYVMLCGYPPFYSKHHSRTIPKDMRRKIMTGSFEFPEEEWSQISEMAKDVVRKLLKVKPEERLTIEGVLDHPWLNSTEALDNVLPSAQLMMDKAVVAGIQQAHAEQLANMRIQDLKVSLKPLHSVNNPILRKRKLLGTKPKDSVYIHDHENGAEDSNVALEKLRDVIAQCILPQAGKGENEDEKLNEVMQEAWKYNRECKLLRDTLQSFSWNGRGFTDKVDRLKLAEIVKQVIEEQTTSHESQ
Rho-associated protein kinase 2, sequence (O75116 whole entry): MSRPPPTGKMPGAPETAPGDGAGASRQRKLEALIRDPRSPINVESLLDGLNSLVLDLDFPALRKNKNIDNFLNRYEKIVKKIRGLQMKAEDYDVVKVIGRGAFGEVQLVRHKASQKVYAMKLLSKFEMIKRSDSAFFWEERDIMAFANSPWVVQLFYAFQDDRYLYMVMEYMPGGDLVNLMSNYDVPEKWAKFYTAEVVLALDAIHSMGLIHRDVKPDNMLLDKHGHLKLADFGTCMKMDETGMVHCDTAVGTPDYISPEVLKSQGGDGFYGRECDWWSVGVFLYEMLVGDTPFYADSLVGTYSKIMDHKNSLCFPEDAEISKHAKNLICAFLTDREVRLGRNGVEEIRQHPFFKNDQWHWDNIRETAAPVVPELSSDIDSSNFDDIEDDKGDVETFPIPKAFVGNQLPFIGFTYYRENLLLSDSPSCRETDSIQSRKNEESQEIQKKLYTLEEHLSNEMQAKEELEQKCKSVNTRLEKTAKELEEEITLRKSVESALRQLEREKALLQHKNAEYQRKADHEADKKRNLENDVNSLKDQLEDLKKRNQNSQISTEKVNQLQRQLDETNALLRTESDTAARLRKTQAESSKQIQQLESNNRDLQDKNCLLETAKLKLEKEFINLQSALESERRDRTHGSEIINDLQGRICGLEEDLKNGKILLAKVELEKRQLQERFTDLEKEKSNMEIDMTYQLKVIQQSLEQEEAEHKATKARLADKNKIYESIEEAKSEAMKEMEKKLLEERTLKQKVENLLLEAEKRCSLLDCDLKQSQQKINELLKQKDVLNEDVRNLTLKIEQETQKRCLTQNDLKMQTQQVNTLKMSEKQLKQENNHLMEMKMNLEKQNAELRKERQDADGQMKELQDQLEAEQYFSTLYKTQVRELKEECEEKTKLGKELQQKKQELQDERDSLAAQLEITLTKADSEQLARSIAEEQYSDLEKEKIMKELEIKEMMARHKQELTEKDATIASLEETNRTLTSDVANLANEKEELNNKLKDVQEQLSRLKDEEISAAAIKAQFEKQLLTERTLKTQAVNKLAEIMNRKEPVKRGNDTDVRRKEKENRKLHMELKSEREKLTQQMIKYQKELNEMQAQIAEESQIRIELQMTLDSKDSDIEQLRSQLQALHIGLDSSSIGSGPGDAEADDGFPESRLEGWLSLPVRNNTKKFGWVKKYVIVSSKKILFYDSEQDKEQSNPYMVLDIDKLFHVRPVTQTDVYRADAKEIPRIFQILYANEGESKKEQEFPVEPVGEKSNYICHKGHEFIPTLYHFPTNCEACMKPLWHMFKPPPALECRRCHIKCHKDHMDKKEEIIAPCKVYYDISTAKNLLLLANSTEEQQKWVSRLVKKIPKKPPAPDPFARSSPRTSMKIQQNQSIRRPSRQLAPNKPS
Tyrosine-protein kinase BTK, sequence (Q06187 whole entry): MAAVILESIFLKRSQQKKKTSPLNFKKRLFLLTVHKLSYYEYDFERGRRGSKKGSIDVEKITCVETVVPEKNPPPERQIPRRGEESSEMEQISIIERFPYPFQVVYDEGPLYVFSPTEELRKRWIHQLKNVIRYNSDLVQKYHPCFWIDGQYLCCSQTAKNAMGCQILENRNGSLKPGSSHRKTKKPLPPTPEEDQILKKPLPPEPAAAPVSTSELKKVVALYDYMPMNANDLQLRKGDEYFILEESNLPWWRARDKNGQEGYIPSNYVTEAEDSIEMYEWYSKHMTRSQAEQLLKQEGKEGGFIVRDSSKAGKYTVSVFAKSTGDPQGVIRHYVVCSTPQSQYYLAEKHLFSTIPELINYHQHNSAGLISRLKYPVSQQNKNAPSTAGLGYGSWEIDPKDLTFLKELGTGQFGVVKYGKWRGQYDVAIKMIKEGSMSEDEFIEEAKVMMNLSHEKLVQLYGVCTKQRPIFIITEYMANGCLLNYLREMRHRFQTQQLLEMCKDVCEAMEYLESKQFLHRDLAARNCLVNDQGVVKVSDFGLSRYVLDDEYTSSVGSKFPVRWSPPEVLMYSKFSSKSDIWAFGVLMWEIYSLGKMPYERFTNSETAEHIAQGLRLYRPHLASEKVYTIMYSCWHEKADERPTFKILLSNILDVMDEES
STE20-like serine/threonine-protein kinase, sequence (Q9H2G2 whole entry): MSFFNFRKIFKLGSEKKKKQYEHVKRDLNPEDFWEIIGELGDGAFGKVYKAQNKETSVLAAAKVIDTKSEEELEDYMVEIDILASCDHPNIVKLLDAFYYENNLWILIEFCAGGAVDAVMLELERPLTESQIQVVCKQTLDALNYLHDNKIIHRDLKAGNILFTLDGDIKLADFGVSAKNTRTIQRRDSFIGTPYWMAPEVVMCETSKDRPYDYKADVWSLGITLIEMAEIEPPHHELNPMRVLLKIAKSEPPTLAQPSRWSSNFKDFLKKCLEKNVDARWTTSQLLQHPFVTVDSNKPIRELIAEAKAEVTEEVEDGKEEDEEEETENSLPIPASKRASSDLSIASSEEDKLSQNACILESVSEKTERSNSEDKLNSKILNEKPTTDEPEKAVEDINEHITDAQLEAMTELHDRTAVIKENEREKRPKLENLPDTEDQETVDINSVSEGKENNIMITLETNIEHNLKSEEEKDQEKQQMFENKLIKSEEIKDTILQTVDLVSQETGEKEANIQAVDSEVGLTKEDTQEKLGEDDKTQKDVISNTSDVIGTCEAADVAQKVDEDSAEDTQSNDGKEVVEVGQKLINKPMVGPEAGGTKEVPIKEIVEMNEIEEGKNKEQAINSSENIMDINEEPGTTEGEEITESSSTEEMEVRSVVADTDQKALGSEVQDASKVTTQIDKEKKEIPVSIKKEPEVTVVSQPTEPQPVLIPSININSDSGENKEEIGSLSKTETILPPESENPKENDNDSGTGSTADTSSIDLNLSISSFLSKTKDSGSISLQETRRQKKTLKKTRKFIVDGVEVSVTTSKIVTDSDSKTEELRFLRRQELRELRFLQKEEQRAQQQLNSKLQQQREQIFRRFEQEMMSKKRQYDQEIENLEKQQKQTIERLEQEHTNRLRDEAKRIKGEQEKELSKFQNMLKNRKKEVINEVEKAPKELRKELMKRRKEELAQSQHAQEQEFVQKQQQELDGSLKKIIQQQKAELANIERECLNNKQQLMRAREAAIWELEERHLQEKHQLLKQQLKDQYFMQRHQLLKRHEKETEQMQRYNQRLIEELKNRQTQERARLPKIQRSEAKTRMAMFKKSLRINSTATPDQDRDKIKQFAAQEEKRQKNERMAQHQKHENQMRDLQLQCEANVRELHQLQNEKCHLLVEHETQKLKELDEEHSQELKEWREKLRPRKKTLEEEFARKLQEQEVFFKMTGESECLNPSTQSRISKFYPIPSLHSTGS
Tyrosine-protein kinase Fer, sequence (P16591 whole entry): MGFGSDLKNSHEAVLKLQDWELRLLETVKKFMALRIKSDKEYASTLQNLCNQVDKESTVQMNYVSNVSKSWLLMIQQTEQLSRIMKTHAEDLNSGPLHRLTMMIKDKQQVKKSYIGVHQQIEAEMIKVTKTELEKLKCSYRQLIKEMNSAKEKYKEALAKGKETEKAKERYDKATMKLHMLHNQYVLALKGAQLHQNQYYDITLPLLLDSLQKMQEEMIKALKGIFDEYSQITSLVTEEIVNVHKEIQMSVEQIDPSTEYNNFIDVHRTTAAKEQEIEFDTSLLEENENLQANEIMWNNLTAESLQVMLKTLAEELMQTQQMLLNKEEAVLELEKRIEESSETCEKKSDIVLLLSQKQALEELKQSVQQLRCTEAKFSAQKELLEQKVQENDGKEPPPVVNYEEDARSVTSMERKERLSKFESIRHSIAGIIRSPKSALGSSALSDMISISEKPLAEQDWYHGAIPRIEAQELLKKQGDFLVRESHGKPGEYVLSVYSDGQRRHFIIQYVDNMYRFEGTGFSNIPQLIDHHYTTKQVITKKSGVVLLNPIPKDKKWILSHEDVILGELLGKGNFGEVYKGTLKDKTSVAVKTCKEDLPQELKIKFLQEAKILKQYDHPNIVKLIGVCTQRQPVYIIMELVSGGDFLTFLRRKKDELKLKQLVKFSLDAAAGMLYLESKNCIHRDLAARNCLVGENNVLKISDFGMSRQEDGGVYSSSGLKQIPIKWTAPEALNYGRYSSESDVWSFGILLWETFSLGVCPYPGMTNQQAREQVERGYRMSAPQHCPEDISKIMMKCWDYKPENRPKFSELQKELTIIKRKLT
Dual specificity tyrosine-phosphorylation-regulated kinase 4, sequence (Q9NR20 whole entry): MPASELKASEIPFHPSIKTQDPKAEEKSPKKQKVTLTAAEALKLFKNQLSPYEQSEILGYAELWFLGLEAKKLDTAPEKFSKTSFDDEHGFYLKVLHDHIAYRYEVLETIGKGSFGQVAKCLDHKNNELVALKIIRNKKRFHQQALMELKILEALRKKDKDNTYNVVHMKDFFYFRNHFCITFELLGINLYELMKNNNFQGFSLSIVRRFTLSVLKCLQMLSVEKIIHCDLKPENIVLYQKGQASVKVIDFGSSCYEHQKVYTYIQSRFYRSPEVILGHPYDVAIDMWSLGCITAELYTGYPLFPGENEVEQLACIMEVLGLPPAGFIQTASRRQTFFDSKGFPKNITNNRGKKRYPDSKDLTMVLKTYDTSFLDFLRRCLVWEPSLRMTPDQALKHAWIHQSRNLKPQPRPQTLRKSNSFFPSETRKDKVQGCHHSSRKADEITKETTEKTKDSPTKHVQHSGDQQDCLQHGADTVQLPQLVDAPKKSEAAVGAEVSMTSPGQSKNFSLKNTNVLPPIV

SMILES: CC(=O)NC1C(=O)N(CCN2CCOCC2)c2ccc(Cl)cc21 (configuration not stated)
- IC50 (Hexokinase HKDC1 [1]): 6750 nM (active)
- EC50 (Protein RecA): 10500 nM (active)
- IC50 (Hexokinase HKDC1 [2]): 11500 nM (active)

SMILES: Cc1c(C=O)c(O)n2c(nc3ccccc32)c1C#N
- Ki [3]: 5010 nM (active)
- Ki [4]: 3980 nM (active)
- Ki [5]: 1260 nM (active)
- Ki [6]: 501 nM (active)

SMILES: Cc1n[nH]c2cnc(-c3cncc(OCC(N)Cc4cccc(C(F)(F)F)c4)c3)cc12 (configuration not stated)
- Ki [7]: > 1260 nM (inactive)
- Ki [8]: 20 nM (active)
- Ki (SRSF protein kinase 1): 631 nM (active)
- Ki [9]: > 1580 nM (inactive)
- Ki [10]: > 1260 nM (inactive)
- Ki [11]: 25.1 nM (active)
- Ki [12]: > 1580 nM (inactive)
- Ki [13]: 63.1 nM (active)
- Ki [14]: 126 nM (active)
- Ki [15]: 15.8 nM (active)
- Ki [16]: > 1580 nM (inactive)
- Ki [17]: 12.6 nM (active)
- Ki [18]: 200 nM (active)
- Ki [19]: > 2000 nM (inactive)
- Ki [20]: > 2510 nM (inactive)
